Square brackets hold non-standard residues; d marks the D form. Ends that are not written are not given here. Stearyl = stearyl group covalently linked to the N-terminus; βAla = NCCC(=O)O

In experiment [1] the test system is 293T cells. Kind of experiment: Cellular delivery of Luciferase mRNA, luciferase expression at 72 hrs. It is filed as cell-based. As to conditions: 0.25 μg Luc mRNA; for reduction of efficiency / luciferase expression after serum treatment: complexes incubated 3 hrs in 25% serum prior transfection; for reduction of efficiency / luciferase expression after heparan sulfate treatment: complexes incubated 3 hrs with heparan sulfate prior transfection; for luciferase expression: absence of serum or heparan sulfate treatment. The method, then:
FIGS. 1A-1C show luciferase expression in 293T cells treated with ADGN-peptide/mRNA complexes. 293T cells cultured in 48 well plates were transfected with ADGN-peptide nanoparticles. ADGN-100, ADGN-106, ADGN-100RI, ADGN-106RI, ADGN-100 Stearyl, ADGN-Hydro1, ADGN-Hydro2, ADGN-Hydro3, ADGN-Hydro4, ADGN-Hydro5, ADGN-Hydro6 and ADGN-peptide/ADGN-100PEG 10% nanoparticles containing 0.25 μg mRNA were formed in sterile water, diluted in sterile water containing 5% Sucrose and filtered with 0.45 μm PES filters. ADGN/mRNA complexes were incubated for 3 hrs in the presence of either 25% serum or heparan sulfate prior transfection. Luciferase expression was monitored 72 hours post transfection and results were reported as RLU (luminescence):mg of protein.
Complex formation with mRNA. The following protocols were used for the transfection of 2-5 106 Cells or Cells at confluency of about 70-80% cultured in 24 well plates. ADGN peptide/mRNA particles were prepared at a 20:1 molar ratio of ADGN-Peptide/mRNA. using (0.25 μg) mRNA. Luc mRNA (0.25 μg) was diluted in 20 μl of sterile water (GIBCO) at room temperature. 5 μl Final Peptide Solution was added to obtain a total volume of 20 μl. The volume was adjusted to 50 μl with sterile water and was mixed gently with vortex 1 min low speed and incubated 30 min at room temperature. Then the volume was made up to 100 μl by adding sterile water containing 5% sucrose, and the solution was mixed gently with vortex 1 min low speed and incubate 5 min at 37° C. and then was proceeded to cell transfection.
Transfection protocol. Protocol is reported for 24 well plate format. Cells were cultured in Dulbecco's Modified Eagle's Medium (DMEM), supplemented with 2 mM glutamine, 1% antibiotics (streptomycin 10,000 μg/mL, penicillin, 10,000 IU/mL) and 10% (w/v) foetal calf serum (FCS), at 37° C. in a humidified atmosphere containing 5% CO2. 24 well plates seeded with 150,000 cells the day prior to transfection were grown to 50-60% confluence and set up to be at about 70% confluences at the time of transfection. Before transfection, cells were washed twice with DMEM. Cells were then overlaid with 0.1 ml of ADGN-peptide/cargo complex solution containing 0.25 μg mRNA, 0.15 μg plasmid DNA or 10-25 nM siRNA, mixed gently, and incubated for 10 min at 37° C. 0.2 mL of fresh DMEM, were added and cells were incubated for 20 min at 37° C. 1 mL of complete DMEM containing 15% FCS were then added in order to reach a final FCS concentration of 10%, without removing the overlay of ADGN-peptide/cargo complexes. Cells were returned to the incubator (37° C., 5% CO2) and 72 hrs post transfection.
ADGN-peptides were evaluated for cellular delivery of Luciferase mRNA in 293T cells. A single dose of mRNA of 0.25 μg was evaluated. Luc mRNA (0.25 μg) in sterile water (GIBCO) were mixed with ADGN-100, ADGN-100RI, ADGN-106, ADGN-106RI, ADGN-100 Stearyl, ADGN-Hydro1, ADGN-Hydro2, ADGN-Hydro5 and ADGN-Hydro6. ADGN-peptide/mRNA complexes were filtered with 0.45 μm PES filter. In order to evaluate the stability of the ADGN/mRNA complexes in high serum and cell culture conditions, the complexes were incubated for 3 hrs in the presence of either 25% serum or heparan sulfate prior transfection, then 293T cells were transfected and Luciferase expression was monitored at 72 hrs.
ADGN-106 peptides containing YIGSR targeting sequence were evaluated for cellular delivery of Luciferase mRNA in 293T cells. A single dose of mRNA of 0.25 μg was evaluated. Luc mRNA (0.25 μg) in sterile water (GIBCO) were mixed with ADGN-106 and ADGN-106Hydro variant. ADGN-peptide/mRNA complexes were filtered with 0.45 μm PES filter. The ADGN-106/mRNA complexes were incubated for 3 hrs in the presence of 25% serum prior transfection, then 293T cells were transfected and Luciferase expression was monitored at 72 hrs.

In experiment [2] the test system is mice. Kind of experiment: In vivo delivery of Luciferase mRNA, intramuscular administration, bioluminescence imaging. As to conditions: IM, Luc mRNA. The protocol:
FIGS. 5A-5B show the potency of ADGN-peptide variants for in vivo delivery of Luciferase mRNA via intramuscular administration in mice. ADGN-peptide/luc mRNA particles containing 2.5 μg mRNA were formed in sterile water, and then diluted in 5% sucrose. Mice received […] injection o 25 μl ADGN-peptide/mRNA complexes. mRNA LUC expression was monitored by bioluminescence imaging after 12 h, 24 h and 48h (A). FIG. 5B show bioluminescence imaging at 24 hr in control and treated groups.
Stable ADGN-peptides/mRNA were evaluated for in vivo delivery of Luciferase mRNA via intravenous and intramuscular administrations. Animals were treated with single dose of 5 moU modified Luc mRNA of 5 μg. 5 moU modified Luc mRNA (5 μg) in sterile water (GIBCO) were mixed with ADGN peptide (sterile water), volume for each sample was adjusted to 100 μl, with sterile water containing 5% Sucrose. Samples were mixed gently with vortex for 1 minute at low speed and incubated for 30 min at room temperature. Samples were filtered on 0.45 μm PES filters prior administration. For IV administration Mice received 100 μl intravenous (IV) injection of either ADGN-106/mRNA, ADGN-100/mRNA, ADGN-106RI/mRNA, ADGN-100-stearyl/mRNA, ADGN-100Hydro1/mRNA, ADGN-100Hydro2 or ADGN/mRNA complexes containing 10% of ADGN-100PEG (3 animals per group). As control, mice from group 3 (2 animals per group) received IV injection of 100 μl of naked 5 moU modified Luc mRNA (5 μg). For IM administration, mice received 25 μl (5 μg mRNA) IV injection of either ADGN-100/mRNA, ADGN-106/mRNA, ADGN-106RI/mRNA or ADGN/mRNA complexes containing 10% or 20% of ADGN-100PEG (2 animals per group). As control, mice from group 3 (2 animals per group) received IV injection of 25 μl of naked 5 moU modified Luc mRNA (5 μg).
mRNA Luc expression was monitored by bioluminescence. Bioluminescence imaging was performed after 12, 24, 48 and 72 hrs. Mice received an i.p. injection of 150 μg/g luciferin for noninvasive bioluminescence imaging (IVIS Kinetic; PerkinElmer, Waltham, MA, USA).

Where [3] appears, read: absence of serum or heparan sulfate.

Turning to “Stearyl-βA-KWRSALWRWRLWRVRSWSR-NH2 (Stearyl-[βAla]KWRSALWRWRLWRVRSWSR-NH2; not fully specified; printed as Stearyl-βA-KWRSALWRWRLWRVRSWSR-NH2) [ADGN-100 Stearyl]”, in experiment [1] (setting [3]), the “reduction of efficiency / luciferase expression by modification or linker vs unmodified ADGN peptide” value was “not significantly affected”.
For “akwllrwlsrwlrwlarwlr ([dA][dK][dW][dL][dL][dR][dW][dL][dS][dR][dW][dL][dR][dW][dL][dA][dR][dW][dL][dR]; also: retro-inverso) [ADGN-106-RI]”, in experiment [2], the “increase of luciferase expression in the muscle / efficiency relative to ADGN-106” value is recorded as 6 fold and the luciferase expression result is “mediated Luciferase expression following intramuscular (IM) administration”. In addition, the “reduction of efficiency / luciferase expression by modification or linker vs unmodified ADGN peptide” value in experiment [1] (setting [3]) was “did not modify”. Also, in experiment [1], the “reduction of efficiency / luciferase expression after serum treatment” value worked out at 26% and the “reduction of efficiency / luciferase expression after heparan sulfate treatment” value was 13%.
“rswsrvrwlrwrwgasrwk ([dR][dS][dW][dS][dR][dV][dR][dW][dL][dR][dW][dR][dW]G[dA][dS][dR][dW][dK]; also: retro-inverso) [ADGN-100-RI]”: the “reduction of efficiency / luciferase expression by modification or linker vs unmodified ADGN peptide” value in experiment [1] (setting [3]) is “did not modify”. Moreover, in experiment [1], the “reduction of efficiency / luciferase expression after serum treatment” value is given as 40% and the “reduction of efficiency / luciferase expression after heparan sulfate treatment” value came to 16%.
For the substance “βAKWRSAGWRWRLW RVRSWSR (AKWRSAGWRWRLWRVRSWSR; N-terminal beta-alanine; VARIANT 1 beta-A) [ADGN-100]”, the luciferase expression result in experiment [2] was “no significant expression”. Further, in experiment [1], the luciferase expression entry is recorded as “high level of luciferase expression”, the “reduction of efficiency / luciferase expression after serum treatment” value is 90% and the “reduction of efficiency / luciferase expression after heparan sulfate treatment” value came to 50%.
Take “βALWRALWRLWRSLWRLLWKA ([βAla]LWRALWRLWRSLWRLLWKA) [ADGN-106]”: the luciferase expression result in experiment [2] is recorded as “mediated Luciferase expression following intramuscular (IM) administration”. In experiment [1] (setting [3]), the “potency relative to ADGN-100” value worked out at 2 fold. Also, in experiment [1], the luciferase expression result is listed as “high level of luciferase expression” and the “reduction of efficiency / luciferase expression after heparan sulfate treatment” value is recorded as 50%.

These data come from patent publication US12357695B2, “Peptides and nanoparticles for intracellular delivery of molecules” (AADIGEN, LLC, priority 2019, dated 2025).
